“And” between values parts separate entries of the source, which are not always exact repeats. Equal entries are not always repeated.
How the values were obtained:
[1] = target: T1, α-Glucosidase type 1 from baker's yeast (Saccharomyces cerevisiae, UniProt P53341); assay: biochemical; conditions: IC50 α-Glucosidase, mean ± SD, triplicate; tested at 1, 5, 10, 25, 50 µM
T1 construct: purchased Sigma Aldrich (Pty) Ltd. G5003
Method: The assay was conducted in triplicate following a method described in our previous study. […] After pre-incubation, 17 µL of 2 mM PNP-G was added. The absorbances were recorded in a 96-well microplate at 400 nm using an Elisa plate reader (Varioskan Flash, ThermoFischer Scientific, Vantaa, Finland). The average values obtained from the readings were used to determine the IC50 and standard deviation values using a GraphPad Prism software (Version 8, GraphPad Software Inc., San Diego, CA, USA). The average values obtained from the absorbance readings were used to determine the IC50 and standard deviation values in GraphPad prism from nonlinear regression dose–response curves.

human α-amylase = target: T2, human α-amylase (Homo sapiens, UniProt P04746); assay: α-amylase inhibitor screening kit assay; assay type: biochemical; conditions: mean ± SD, triplicate; tested at 1, 5, 10, 25, 50 µM
T2 construct: purchased Abcam ab283391
T2 sequence (P04746 16-511): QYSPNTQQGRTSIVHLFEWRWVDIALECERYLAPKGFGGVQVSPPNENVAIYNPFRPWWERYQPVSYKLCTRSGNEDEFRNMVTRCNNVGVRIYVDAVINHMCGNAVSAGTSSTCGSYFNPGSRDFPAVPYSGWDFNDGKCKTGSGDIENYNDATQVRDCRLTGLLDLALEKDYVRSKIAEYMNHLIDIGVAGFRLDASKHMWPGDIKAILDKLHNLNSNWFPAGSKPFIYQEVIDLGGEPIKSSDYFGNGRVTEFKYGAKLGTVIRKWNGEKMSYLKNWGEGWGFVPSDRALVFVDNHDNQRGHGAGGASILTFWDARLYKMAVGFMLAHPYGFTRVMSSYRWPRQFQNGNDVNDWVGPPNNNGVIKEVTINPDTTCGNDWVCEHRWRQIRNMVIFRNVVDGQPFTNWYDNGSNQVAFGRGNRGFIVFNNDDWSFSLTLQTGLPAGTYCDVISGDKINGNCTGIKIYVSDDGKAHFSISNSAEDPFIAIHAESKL
Method: The α-amylase assay was performed in triplicate, using a 96-well plate following the procedure recommended by the manufacturer as outlined in the α-amylase inhibitor Screening Kit (Catalogue No. ab283391; Abcam). […] The average values obtained from the absorbance readings were used to determine the IC50 and standard deviation values in GraphPad prism from nonlinear regression dose–response curves.

[2] = DPPH radical scavenging assay; conditions: mean ± SD; 45 min in the dark; 512 nm
Method: The DPPH radical scavenging assay was conducted following the procedure described in our previous study. The test compounds and ascorbic acid at various concentrations (ranging from 0 µM to 50 µM) in DMSO were mixed with a solution of DPPH (0.20 mM) in methanol and incubated in the dark for 45 min. Five absorbance readings were recorded at 512 nm using an Elisa plate reader (Varioskan Flash, ThermoFisher Scientific, Vantaa, Finland). The experiment was carried out in triplicate, and averaged values from the absorbance readings were used to determine the IC50 and standard deviation values in GraphPad prism from nonlinear regression dose–response curves.

[3] = NO free radical scavenging assay (sodium nitroprusside/Griess); conditions: mean ± SD; sodium nitroprusside, Griess reagent, 550 nm
Method: The assay was conducted following the method described in our previous study. A mixture of 10 mM sodium nitroprusside (20 µL), phosphate buffer (5 µL) and the test compound (5 µL) were incubated at 25 °C in a 96-well plate for 2.5 h. After incubation, 20 µL of Griess reagent (1.00 g of sulfanilic acid + 0.10 g naphthylethylene diamine dihydrochloride) was added to the previous mixture and allowed to stand for 30 min. […] Each experiment was performed in triplicate, and the average was taken. The average obtained from the absorbance readings was used to calculate the IC50 values in GraphPad prism from nonlinear regression dose–response curves.

[4] = tested on: NO generated from nitric oxide synthase (NOS); assay: Inhibitory activity against NO generated from NOS (EnzyChrom kit); assay type: biochemical; conditions: mean ± SD, 1-50 µM
Method: (§1) A nitric oxide synthase (NOS) assay was performed following the procedure recommended by the manufacturer as outlined in the screening kit (Catalogue No. EINO-100; EnzyChrom). Various concentrations (1, 5, 10, 25 and 50 µM) of the compounds 3a, 3c, 3f, 3i, 3l, 3n and 3p and the reference standard, ascorbic acid, were prepared. The enzyme solution (12.5 U/mL NOS, 10 µL), assay buffer (25 µL) and test samples (5 µL) were incubated at room temperature for 15 min. After pre-incubation, 10 µL of reaction mix was added and incubated at 37 °C for 60 min. A 200 µL quantity of NO detection reagent was added, the detection reaction was run at 37 °C for 60 min, and absorbance was determined at a wavelength of 540 nm using an Elisa plate reader (Varioskan Flash, ThermoFisher Scientific, Vantaa, Finland). The average of three readings was used to calculate the NOS percentage inhibition using the following formula: % Inhibition=1−ΔOD Test Compd/ΔOD No Inhibitor ×100%
The IC50 values and standard deviation values were determined from nonlinear regression dose–response curve and compared with the results in GraphPad prism.

[5] = target: superoxide dismutase (SOD); assay: Superoxide dismutase (SOD) inhibitory assay (SOD assay kit-WST); assay type: biochemical; conditions: duplicate; 1-50 µM; 25 °C, 30 min; read-out: IC50 SOD inhibition
Method: The antioxidant activity of the compounds 3a, 3c, 3f, 3i, 3l, 3n and 3p against superoxide radicals was assessed via enzymatic assay in vitro using the SOD assay kit-WST according to the manufacturer’s instructions (Sigma-Aldrich®). The reaction mixtures in the SOD kit were combined with 20 μL of working solution of the samples in a 96-well plate. Plates were gently shaken and then incubated at 25 °C for 30 min. The reference positive control, diphenyleneiodonium (DPI), and the compounds were tested at 01, 5, 10, 25 and 50 µM in duplicates. The inhibition activity of SOD on the reaction of […] generated the superoxide with a tetrazolium salt, which was then determined by measuring the absorbance of the mixtures at a wavelength of 450 nm using an Elisa plate reader (Varioskan Flash, ThermoFisher Scientific, Vantaa, Finland). The SOD activity values obtained used to calculate the percentage of inhibition. % SOD activity=ODx− ODy/ODx ×100% where ODx is the absorbance of the blank (untreated SOD) and ODy is the absorbance of the sample (treated SOD). All tests were performed in duplicate.

[6] = tested on: lung cancer (A549) cell line; assay: MTT cytotoxicity assay, A549; conditions: for Cell viability percentage, A549: Table S3; for IC50: Homo sapiens, A549, read-out: IC50 A549
Method: (§2) Cells were cultured in sterile Dulbecco’s Minimal Essential Medium (DMEM, Gibco) supplemented with 10% fetal bovine serum (FBS) and 1% penicillin-streptomycin solution. […] Cell counting was carried out using a handheld automated cell counter (Scapter 3.0™, Merck, Burlington, MA, USA) and seeded (1 × 10^4 cells/well) into a 96-well plate. After 24 h, the cells were treated with different concentrations (1, 5, 10, 25 and 50 µM) of the test compounds and reference standards prepared in DMEM. The MTT solution (20 μL) prepared in PBS (5 mg/mL) was added to all the wells, and the plates were incubated for 4 h, followed by 1 h incubation with 100 µL of dimethyl sulfoxide (DMSO) to dissolve the formazan crystals. Untreated cells and 5% DMSO were included in the experiment as negative controls. All experiments were performed in triplicate. The plates were read at 570 nm at a reference wavelength of 630 nm using an ELISA plate reader (Varioskan Flash, ThermoFisher Scientific, Vantaa, Finland). The percentage of cell viability was calculated using the following formula, Cell viability %=At/Ab×100 where At represents the absorbance value of test compound and Ab the absorbance value of the blank. […] The data were expressed as means ± SD.

[7] = tested on: breast cancer (MCF-7) cell line; assay: MTT cytotoxicity assay, MCF-7; conditions: for Cell viability percentage, MCF-7: Table S2; for IC50: Homo sapiens, MCF7, read-out: IC50 MCF-7
Method: as §2

[8] = MTT cytotoxicity assay, HEK293-T; conditions: human, HEK293-T cells
[9] = tested on: human embryonic kidney (HEK293-T) cell line; assay: MTT cytotoxicity assay, HEK293-T; conditions: Homo sapiens, HEK-293T, read-out: IC50 Hek293-T
[10] = tested on: nitric oxide synthase (NOS); assay: Kinetic study on inhibitory activity of NOS; assay type: biochemical; conditions: seven concentrations 1-10.0 μM; Figure 3; read-out: IC50 NOS inhibition (kinetic study)
Method: as §1, with “2.5, 4.0, 5.5, 7.0, 8.5” for “5, 10, 25”, “10.0” for “50”, “3i” for “3a, 3c, 3f, 3i, 3l, 3n and 3p”, “DPI,” for “ascorbic acid,”, “uL),” for “µL),”, “formula in Section 2.6.3” for “following formula: % Inhibition=1−ΔOD Test Compd/ΔOD No Inhibitor ×100%”

[11] = tested on: NOS of semipurified enzyme preparation or activated macrophage cytosol; conditions: 30 min. incubation with 10 μM DPI at 37 °C; cited from earlier work

T1 sequence (P53341 whole entry): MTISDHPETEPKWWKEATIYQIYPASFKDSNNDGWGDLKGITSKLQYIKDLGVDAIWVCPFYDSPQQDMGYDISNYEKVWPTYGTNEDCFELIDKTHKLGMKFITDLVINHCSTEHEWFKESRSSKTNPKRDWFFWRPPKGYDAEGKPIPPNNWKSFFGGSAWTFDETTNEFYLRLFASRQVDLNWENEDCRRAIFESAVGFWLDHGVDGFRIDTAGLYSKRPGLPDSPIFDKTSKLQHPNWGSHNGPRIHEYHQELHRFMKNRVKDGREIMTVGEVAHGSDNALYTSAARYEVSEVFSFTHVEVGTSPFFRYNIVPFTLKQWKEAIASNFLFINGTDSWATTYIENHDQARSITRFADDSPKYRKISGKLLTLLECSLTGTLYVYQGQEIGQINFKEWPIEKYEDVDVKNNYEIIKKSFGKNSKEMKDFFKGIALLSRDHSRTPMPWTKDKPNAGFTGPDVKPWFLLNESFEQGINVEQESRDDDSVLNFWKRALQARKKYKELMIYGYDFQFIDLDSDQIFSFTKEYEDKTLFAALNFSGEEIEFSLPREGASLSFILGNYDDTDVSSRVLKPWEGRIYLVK

Row | Compound | IC50 [1] | IC50 (human α-amylase) | IC50 [2] | IC50 [3] | IC50 [4] | IC50 [5] | melting point | Cell viability percentage, A549 ([6]; Conc. 1 (µM per method)) | Cell viability percentage, A549 ([6]; Conc. 5 (µM per method)) | Cell viability percentage, A549 ([6]; Conc. 10 (µM per method)) | Cell viability percentage, A549 ([6]; Conc. 25 (µM per method)) | Cell viability percentage, A549 ([6]; Conc. 50 (µM per method)) | IC50 [6] | Cell viability percentage, MCF-7 ([7]; Conc. 1 (µM per method)) | Cell viability percentage, MCF-7 ([7]; Conc. 5 (µM per method)) | Cell viability percentage, MCF-7 ([7]; Conc. 10 (µM per method)) | Cell viability percentage, MCF-7 ([7]; Conc. 25 (µM per method)) | Cell viability percentage, MCF-7 ([7]; Conc. 50 (µM per method)) | IC50 [7] | viability at 1 µM [8] | further results
1 | COc1ccc(C2Nc3c(I)cc(Br)cc3C(C)=[N+]2[O-])cc1 (stereo not drawn) [Compound 3l] | 0.92 µM and 1.04 µM | 54.18 ± 0.01 µM | 27.7 ± 0.04 µM | 67.81 ± 0.004 µM | 1.06 ± 0.005 µM | 5.6 ± 0.17 µM | 153 to 155 °C | 89,6276% | 82,1465% | 60,333% | 45,5732% | 45,4944% | 16.34 ± 0.06 µM | 66,3742% | 55,5856% | 51,5919% | 35,1896% | 17,5102% | 18.12 ± 0.1 µM | 80.4% | viability at 5 µM [8]: 69.4%; viability at 10 µM [8]: 59.2%; viability at 25 µM [8]: 25.5%; viability at 50 µM [8]: 19.7%; IC50 [9]: 32.39 ± 0.17 µM
2 | CC1=[N+]([O-])C(c2ccc(F)cc2)Nc2c(Br)cc(I)cc21 (stereo not drawn) [Compound 3n] | 43.23 ± 0.05 µM | 4.71 ± 0.01 µM | 6.84 ± 0.009 µM | 0.88 ± 0.004 µM | 3.5 ± 0.01 µM | 6.2 ± 0.12 µM | 125 to 127 °C | 79,9753% | 73,2703% | 62,0205% | 43,4807% | 30,3521% | 17.22 ± 0.07 µM | 34,8969% | 33,2335% | 31,9528% | 31,7365% | 30,1896% | 14.79 ± 0.1 µM | 75.1% | viability at 5 µM [8]: 70.1%; viability at 10 µM [8]: 54.1%; viability at 25 µM [8]: 39.6%; viability at 50 µM [8]: 20.5%; IC50 [9]: 32.42 ± 0.06 µM
3 | c1ccc2c(c1)[I+]c1ccccc1-2 [DPI, diphenyleneiodonium chloride, reference compound] | – | – | – | – | – | 0.71 ± 0.03 µM | – | – | – | – | – | – | – | – | – | – | – | – | – | – | IC50 [10]: 3 ± 0.007 µM; NOS activity after incubation with inhibitor [11]: irreversibly inhibited
4 | COc1ccc(C2Nc3c(Br)cc(I)cc3C(C)=[N+]2[O-])cc1 (stereo not drawn) [Compound 3p] | 0.78 ± 0.05 µM | 73.66 ± 0.02 µM | 60.03 ± 0.014 µM | 5.46 ± 0.004 µM | 15.51 ± 0.009 µM | 8.3 ± 0.04 µM | 173 to 174 °C | 45,0433% | 44,7771% | 43,6627% | 42,5649% | 39,3879% | 12.24 ± 0.02 µM | 72,4624% | 70,8112% | 59,2339% | 43,212% | 27,8817% | 13.47 ± 0.06 µM | 83.4% | viability at 5 µM [8]: 81.4%; viability at 10 µM [8]: 75.8%; viability at 25 µM [8]: 74.7%; viability at 50 µM [8]: 18.4%; IC50 [9]: 59.02 ± 0.02 µM
